In PubChem BioAssay AID1259407 (Chemical Carcinogenesis Research Information System (CCRIS), 2018):
Activity calls are given as the source filed them. How the calls were made is not given here.

System: CCRIS mutagenicity, Ames/micronucleus/aberration tests
Assay: CCRIS mutagenicity studies
[1] = End Point: IN VITRO CHROMOSOMAL ABERRATIONS, Test System: CHO CELLS, Metabolic Activation: RAT, LIVER, S-9, AROCLOR 1254
[2] = Test System: AMES SALMONELLA TYPHIMURIUM, Strain/Indicator: TA100, Metabolic Activation: NONE, Method: PREINCUBATION
[3] = Test System: AMES SALMONELLA TYPHIMURIUM, Strain/Indicator: TA1535, Metabolic Activation: NONE, Method: PREINCUBATION
[4] = Test System: AMES SALMONELLA TYPHIMURIUM, Strain/Indicator: TA97, Metabolic Activation: NONE, Method: PREINCUBATION
[5] = Test System: AMES SALMONELLA TYPHIMURIUM, Strain/Indicator: TA98, Metabolic Activation: NONE, Method: PREINCUBATION
[6] = Test System: AMES SALMONELLA TYPHIMURIUM, Strain/Indicator: TA98, Metabolic Activation: NONE, Method: STANDARD PLATE
[7] = Test System: AMES SALMONELLA TYPHIMURIUM, Strain/Indicator: TA100, Metabolic Activation: NONE, Method: STANDARD PLATE

Measured: mutagenic call

NS(=O)(=O)c1cc2c(cc1Cl)NCNS2(=O)=O
active: Test System: MOUSE LYMPHOMA, Strain/Indicator: L5178Y (TK+/TK-), Metabolic Activation: NONE, Method: SUSPENSION/PLATE active; positive
inactive: End Point: IN VITRO CHROMOSOMAL ABERRATIONS, Test System: CHINESE HAMSTER OVARY CELLS, Metabolic Activation: NONE inactive; negative | End Point: IN VITRO CHROMOSOMAL ABERRATIONS, Test System: CHINESE HAMSTER OVARY CELLS, Metabolic Activation: RAT, LIVER, S-9, AROCLOR 1254 inactive; negative | End Point: IN VITRO CHROMOSOMAL ABERRATIONS, Test System: CHO CELLS, Metabolic Activation: NONE inactive; negative | [1] inactive; negative | Test System: AMES SALMONELLA TYPHIMURIUM, Strain/Indicator: TA98, Metabolic Activation: HAMSTER, LIVER, S-9, AROCLOR 1254, Method: PREINCUBATION inactive; negative | Test System: AMES SALMONELLA TYPHIMURIUM, Strain/Indicator: TA98, Metabolic Activation: RAT, LIVER, S-9, AROCLOR 1254, Method: PREINCUBATION inactive; negative | Test System: AMES SALMONELLA TYPHIMURIUM, Strain/Indicator: TA100, Metabolic Activation: HAMSTER, LIVER, S-9, AROCLOR 1254, Method: PREINCUBATION inactive; negative | [2] inactive; negative | Test System: AMES SALMONELLA TYPHIMURIUM, Strain/Indicator: TA100, Metabolic Activation: RAT, LIVER, S-9, AROCLOR 1254, Method: PREINCUBATION inactive; negative | Test System: AMES SALMONELLA TYPHIMURIUM, Strain/Indicator: TA1535, Metabolic Activation: HAMSTER, LIVER, S-9, AROCLOR 1254, Method: PREINCUBATION inactive; negative | [3] inactive; negative | Test System: AMES SALMONELLA TYPHIMURIUM, Strain/Indicator: TA1535, Metabolic Activation: RAT, LIVER, S-9, AROCLOR 1254, Method: PREINCUBATION inactive; negative | Test System: AMES SALMONELLA TYPHIMURIUM, Strain/Indicator: TA1537, Metabolic Activation: HAMSTER, LIVER, S-9, AROCLOR 1254, Method: PREINCUBATION inactive; negative | Test System: AMES SALMONELLA TYPHIMURIUM, Strain/Indicator: TA1537, Metabolic Activation: RAT, LIVER, S-9, AROCLOR 1254, Method: PREINCUBATION inactive; negative

CCCOC(=O)c1cc(O)c(O)c(O)c1
active: Test System: AMES SALMONELLA TYPHIMURIUM, Strain/Indicator: TA102, Metabolic Activation: S-9, Method: PREINCUBATION active; positive
inactive: [1] inactive; negative | [4] inactive; negative | Test System: AMES SALMONELLA TYPHIMURIUM, Strain/Indicator: TA97, Metabolic Activation: S-9, Method: PREINCUBATION inactive; negative | [5] inactive; negative | [6] inactive; negative | Test System: AMES SALMONELLA TYPHIMURIUM, Strain/Indicator: TA98, Metabolic Activation: RAT LIVER S-9, Method: PREINCUBATION inactive; negative | Test System: AMES SALMONELLA TYPHIMURIUM, Strain/Indicator: TA98, Metabolic Activation: RAT, LIVER, S-9, AROCLOR 1254, Method: STANDARD PLATE inactive; negative | [2] inactive; negative | [7] inactive; negative | Test System: AMES SALMONELLA TYPHIMURIUM, Strain/Indicator: TA100, Metabolic Activation: RAT LIVER S-9, Method: PREINCUBATION inactive; negative | Test System: AMES SALMONELLA TYPHIMURIUM, Strain/Indicator: TA100, Metabolic Activation: RAT, LIVER, S-9, AROCLOR 1254, Method: STANDARD PLATE inactive; negative | Test System: AMES SALMONELLA TYPHIMURIUM, Strain/Indicator: TA102, Metabolic Activation: NONE, Method: PREINCUBATION inactive; negative | Test System: AMES SALMONELLA TYPHIMURIUM, Strain/Indicator: TA1535, Metabolic Activation: NONE, Method: STANDARD PLATE inactive; negative | Test System: AMES SALMONELLA TYPHIMURIUM, Strain/Indicator: TA1535, Metabolic Activation: RAT, LIVER, S-9, AROCLOR 1254, Method: STANDARD PLATE inactive; negative | Test System: AMES SALMONELLA TYPHIMURIUM, Strain/Indicator: TA1537, Metabolic Activation: NONE, Method: STANDARD PLATE inactive; negative | Test System: AMES SALMONELLA TYPHIMURIUM, Strain/Indicator: TA1537, Metabolic Activation: RAT, LIVER, S-9, AROCLOR 1254, Method: STANDARD PLATE inactive; negative | Test System: AMES SALMONELLA TYPHIMURIUM, Strain/Indicator: TA1538, Metabolic Activation: NONE, Method: STANDARD PLATE inactive; negative | Test System: AMES SALMONELLA TYPHIMURIUM, Strain/Indicator: TA1538, Metabolic Activation: RAT, LIVER, S-9, AROCLOR 1254, Method: STANDARD PLATE inactive; negative | Test System: Ames Salmonella typhimurium, Strain/Indicator: TA102, Metabolic Activation: None, Method: Preincubation inactive; negative | Test System: Ames Salmonella typhimurium, Strain/Indicator: TA102, Metabolic Activation: Rat, Liver, S-9, Aroclor 1254 in 0.154 M KCl, Method: Preincubation inactive; negative | Test System: E. COLI, Strain/Indicator: WP2, Metabolic Activation: NONE, Method: STANDARD PLATE inactive; negative | Test System: E. COLI, Strain/Indicator: WP2, Metabolic Activation: RAT, LIVER, S-9, AROCLOR 1254, Method: STANDARD PLATE inactive; negative

CCOP(=O)(OCC)N1[C@@H]2c3ccccc3-c3ccccc3[C@@H]21 (some centres undefined)
active: [7] active; positive | Test System: CHINESE HAMSTER V-79, Strain/Indicator: V-79/6-THIOGUANINE, Metabolic Activation: NONE, Method: STANDARD PLATE active; positive

CC(C)(C)OOC(C)(C)C
inactive: Test System: AMES SALMONELLA TYPHIMURIUM, Strain/Indicator: TA97, Metabolic Activation: HAMSTER, LIVER, S-9, AROCLOR 1254 (10%), Method: PREINCUBATION inactive; negative | Test System: AMES SALMONELLA TYPHIMURIUM, Strain/Indicator: TA97, Metabolic Activation: HAMSTER, LIVER, S-9, AROCLOR 1254 (30%), Method: PREINCUBATION inactive; negative | [4] inactive; negative | Test System: AMES SALMONELLA TYPHIMURIUM, Strain/Indicator: TA97, Metabolic Activation: RAT, LIVER, S-9, AROCLOR 1254 (10 OR 30%), Method: PREINCUBATION inactive; negative | Test System: AMES SALMONELLA TYPHIMURIUM, Strain/Indicator: TA98, Metabolic Activation: HAMSTER, LIVER, S-9, AROCLOR 1254 (10%), Method: PREINCUBATION inactive; negative | Test System: AMES SALMONELLA TYPHIMURIUM, Strain/Indicator: TA98, Metabolic Activation: HAMSTER, LIVER, S-9, AROCLOR 1254 (30%), Method: PREINCUBATION inactive; negative | [5] inactive; negative | Test System: AMES SALMONELLA TYPHIMURIUM, Strain/Indicator: TA98, Metabolic Activation: RAT, LIVER, S-9, AROCLOR 1254 (10 OR 30%), Method: PREINCUBATION inactive; negative | Test System: AMES SALMONELLA TYPHIMURIUM, Strain/Indicator: TA100, Metabolic Activation: HAMSTER, LIVER, S-9, AROCLOR 1254 (10%), Method: PREINCUBATION inactive; negative | Test System: AMES SALMONELLA TYPHIMURIUM, Strain/Indicator: TA100, Metabolic Activation: HAMSTER, LIVER, S-9, AROCLOR 1254 (30%), Method: PREINCUBATION inactive; negative | [2] inactive; negative | Test System: AMES SALMONELLA TYPHIMURIUM, Strain/Indicator: TA100, Metabolic Activation: RAT, LIVER, S-9, AROCLOR 1254 (10 OR 30%), Method: PREINCUBATION inactive; negative | Test System: AMES SALMONELLA TYPHIMURIUM, Strain/Indicator: TA1535, Metabolic Activation: HAMSTER, LIVER, S-9, AROCLOR 1254 (10%), Method: PREINCUBATION inactive; negative | Test System: AMES SALMONELLA TYPHIMURIUM, Strain/Indicator: TA1535, Metabolic Activation: HAMSTER, LIVER, S-9, AROCLOR 1254 (30%), Method: PREINCUBATION inactive; negative | [3] inactive; negative | Test System: AMES SALMONELLA TYPHIMURIUM, Strain/Indicator: TA1535, Metabolic Activation: RAT, LIVER, S-9, AROCLOR 1254 (10 OR 30%), Method: PREINCUBATION inactive; negative

O=[N+]([O-])c1ccc2c(c1)CCc1cc([N+](=O)[O-])ccc1-2
active: Test System: AMES SALMONELLA TYPHIMURIUM, Strain/Indicator: TA98(1,8-DNP6), Metabolic Activation: NONE, Method: STANDARD PLATE active; positive | Test System: AMES SALMONELLA TYPHIMURIUM, Strain/Indicator: TA98(NR), Metabolic Activation: NONE, Method: STANDARD PLATE active; positive | [6] active; positive
